Test results taken from publication PMC2907420 (Journal of pharmaceutical and biomedical analysis, 2010).

Legend:
[1] = depending on storage conditions; cited from earlier work
glycated HSA [2] = target: T1, glycated HSA (Homo sapiens, UniProt P02768); settings: 4°C, comparable glycation conditions; cited from earlier work
glycated HSA (gHSA2) [3] = target: T2, glycated HSA (gHSA2) (Homo sapiens, UniProt P02768); assay: biochemical
glycated HSA (gHSA2) [4] = target: T2, glycated HSA (gHSA2); settings: gHSA2 column
glycated HSA (gHSA3) [5] = target: T3, glycated HSA (gHSA3) (Homo sapiens, UniProt P02768); assay: biochemical
T3 sequence (P02768 25-609): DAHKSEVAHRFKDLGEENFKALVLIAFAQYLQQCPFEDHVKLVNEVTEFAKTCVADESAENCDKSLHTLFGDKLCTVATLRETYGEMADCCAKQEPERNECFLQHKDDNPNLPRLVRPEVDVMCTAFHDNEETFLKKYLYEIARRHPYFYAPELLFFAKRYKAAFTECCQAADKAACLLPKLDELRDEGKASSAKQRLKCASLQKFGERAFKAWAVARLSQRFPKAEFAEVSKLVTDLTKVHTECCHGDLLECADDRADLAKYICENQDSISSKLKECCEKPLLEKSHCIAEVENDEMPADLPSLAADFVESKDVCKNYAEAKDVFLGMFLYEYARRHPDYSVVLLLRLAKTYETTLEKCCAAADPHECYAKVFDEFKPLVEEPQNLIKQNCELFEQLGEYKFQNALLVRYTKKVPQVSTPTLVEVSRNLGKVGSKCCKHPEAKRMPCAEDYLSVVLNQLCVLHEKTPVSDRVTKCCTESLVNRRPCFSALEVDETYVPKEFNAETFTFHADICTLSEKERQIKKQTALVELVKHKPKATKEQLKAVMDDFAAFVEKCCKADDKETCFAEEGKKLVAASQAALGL

glycated HSA (gHSA1) [6] = target: T4, glycated HSA (gHSA1) (Homo sapiens, UniProt P02768); assay: biochemical
T4 sequence (P02768 25-609): as above

normal HSA = normal HSA columns, 37°C; cited from earlier work
glycated HSA (gHSA1) [7] = target: T4, glycated HSA (gHSA1); settings: gHSA1 column
glycated HSA [8] = target: T1, glycated HSA; settings: pH 7.4, 37°C; versus reported Ka of 1.1 × 10^4 M^−1 for normal HSA
glycated HSA (gHSA3) [9] = target: T3, glycated HSA (gHSA3); settings: gHSA3 column
[10] = binding capacity normalized for protein content
[11] = moles of active binding sites, Eqn. 3

T2 sequence (P02768 25-609): as above
T1 sequence (P02768 25-609): as above

N[C@@H](Cc1c[nH]c2ccccc12)C(=O)O [L-Tryptophan, L-tryptophan]
time over which solutions decrease in stability [1]: 2 to 9 days | decrease in affinity, glycated HSA versus HSA (glycated HSA [2]): ≤ 0.6 fold | Kd (glycated HSA (gHSA2) [3]): 15.6 µM | Specific Activity (glycated HSA (gHSA2) [4]; [10]): 0.30 (± 0.05) mol/mol HSA | mL (glycated HSA (gHSA2) [4]; [11]): 6.7 (± 1.8) × 10^−9 mol | Kd (glycated HSA (gHSA3) [5]): 17.5 µM | Kd (glycated HSA (gHSA1) [6]): 19.2 µM | association equilibrium constant (normal HSA): 11000 M⁻¹ | Specific Activity (glycated HSA (gHSA1) [7]; [10]): 0.36 (± 0.08) mol/mol HSA | mL (glycated HSA (gHSA1) [7]; [11]): 5.0 (± 0.9) × 10^−9 mol | increase in binding affinity (Ka) with glycated HSA versus normal HSA (glycated HSA [8]): 4.7–5.8 fold | Specific Activity (glycated HSA (gHSA3) [9]; [10]): 0.31 (± 0.04) mol/mol HSA | mL (glycated HSA (gHSA3) [9]; [11]): 5.8 (± 0.6) × 10^−9 mol
